In US20080051393A1, “Novel cannabinoids and methods of use” (Eastern Virginia Medical School, priority 2006, published 2008):

What was measured:
ICR mice [1] = test: Tetrad model: inhibition of spontaneous activity (SA); type: in vivo; details: Mus musculus, iv, spontaneous activity 5-15 min after injection; read-out: S.A. ED50
From the text: (§1) ICR Mice and Materials. Male ICR mice (Harlan Laboratories, Indianapolis, Ind.) weighing between 24 to 30 g were used in all experiments. Mice were maintained on a 14:10-hr light/dark cycle with food and water available ad lib. All test groups consisted of 6 to 12 mice. Analogs dissolved in a vehicle consisting of ethanol, emulphor and saline in a ratio of 1:1:18. All chemicals for receptor binding studies were purchased from Sigma (St. Louis, Mo.) except the following: Dulbeco's modified Eagle's medium (DMEM) from GIBCO BRL (Grand Island, N.Y.), Whatman GF/B glass fiber filters from Fischer Scientific (Pittsburg, Pa.), fetal calf serum (FCS) and fetal bovine serum (FBS) from HyClone Laboratories (Logan, Utah) and Budget-Solve scintillation fluid from RPI Corp. (Mount Prospect, Ill.).
(§2) Behavioral Evaluations. All animals were allowed to acclimate to the observation room overnight. Behavioral effects were assessed in the tetrad model to measure potency in decreasing spontaneous activity (SA), antinociception [tail-flick procedure, TF], rectal temperature (RT) and relative immobility (RI) catalepsy. The baselines for tail-flick latency (2-4 sec) and rectal temperature were determined prior to i.v. injections. Baseline rectal temperatures were measured using a telethermometer and a thermometer probe inserted to 25 mm (Yellow Springs Instrument Co., Yellow Springs, Ohio). The mice treated i.v. with an analog were placed in individual photocell activity chambers 5 min later. Spontaneous activity wasp monitored for 10 min in a Digiscan Animal Activity Monitor (Omnitech Electronice, Inc., Columbus, Ohio) as measured by the number of interruptions of 16 photocell beams per chamber. The total number of beam interruptions during the 10-min period was determined and presented as total counts. The mice were then assessed at 20 min following the i.v. injection for antinociception using the tail-flick reaction time to a heat stimulus. A 10-sec maximum latency was used in order to avoid tail injury. The results are presented as % MPE and are calculated as follows: % MPE=[(test latency-control latency)/(10 sec−control latency)]×100.
(§3) Data analysis. Based on data obtained from numerous previous in vivo studies with cannabinoids, maximal cannabinoid effects in each in vivo pharmacological procedure were estimated as follows: 90% inhibition of spontaneous activity, 100% MPE in the tail flick procedure, and −6° C. change in rectal temperature. Means and standard error (S.E.) were calculated for % MPE, number of photocell disruptions, % ring immobility and Δ° C. Analysis of variance (ANOVA) was used to determine significant differences between control and treatment groups followed by Dunnett's t-test post-hoc analysis. Statistical analysis was performed using StatView, version 5.0 (SAS Institute, Cary, N.C.). Significance was defined as a “p”<0.05. ED50's were defined as the dose at which half maximal effect occurred. For drugs that produced one or more cannabinoid effect, ED50's were calculated separately using least-squares linear regression on the linear part of the dose-effect curve for each measure in the mouse tetrad, plotted against log10 transformation of the dose.

human CB1 receptor = molecular target: T1, human CB1 receptor (Homo sapiens, UniProt P21554); test: CB1 receptor binding, [3H]CP55,940 displacement; details: HEK-293 membranes, means ± SE, N = 3
T1 construct: expressed in transfected cells; host or cells: HEK-293
T1 sequence (P21554 whole entry): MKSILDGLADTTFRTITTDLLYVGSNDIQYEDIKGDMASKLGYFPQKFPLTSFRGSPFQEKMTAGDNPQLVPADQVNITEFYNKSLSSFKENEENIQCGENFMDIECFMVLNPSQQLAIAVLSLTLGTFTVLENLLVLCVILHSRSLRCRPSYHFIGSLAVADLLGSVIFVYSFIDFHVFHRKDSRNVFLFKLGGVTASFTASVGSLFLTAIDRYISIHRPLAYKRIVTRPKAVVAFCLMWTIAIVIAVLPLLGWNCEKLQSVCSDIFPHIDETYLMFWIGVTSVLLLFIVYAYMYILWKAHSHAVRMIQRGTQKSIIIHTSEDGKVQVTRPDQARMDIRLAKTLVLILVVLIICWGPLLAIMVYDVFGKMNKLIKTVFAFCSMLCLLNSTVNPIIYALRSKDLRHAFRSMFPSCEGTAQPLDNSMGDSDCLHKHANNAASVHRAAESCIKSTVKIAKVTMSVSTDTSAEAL
Protocol: (§4) Membrane Preparations. HEK-293 cells stably expressing the human CB1 receptor were cultured in DMEM with 10% FBS and Chinese Hamster Ovary (CHO) cells stably expressing the human CB2 receptor were cultured in DMEM with 10% FCS. Cells were harvested by replacement of the media with cold phosphate-buffered saline containing 1 mM EDTA followed by centrifugation at 1000×g for 5 min at 4° C. The pellet was resuspended in 50 mM Tris-HCl containing 320 mM sucrose, 2 mM EDTA and 5 mM MgCl2 (pH 7.4) (centrifugation buffer), then centrifuged at 1000×g for 10 min at 4° C. and the resulting supernatant was saved. This process was repeated twice. The supernatant fractions were combined and centrifuged at 40,000×g for 30 min at 4° C. The resulting P2 pellet was resuspended in assay buffer (50 mM Tris-HCl (pH 7.4), 3 mM MgCl2, 0.2 mM EGTA, and 100 mM NaCl) and protein was measured. Membranes were stored at −80° C. until use.
(§5) Receptor Binding. Membrane homogenates (50 μg) were incubated with 0.5 nM [^3H]CP55,940 in the presence of varying concentrations (1 nM-10 μM) of test compounds in 0.5 ml of buffer containing BSA (5 mg/ml). Non-specific binding was measured in the presence of 1 μM CP55,940. The assay was incubated at 30° C. for 1 hr and terminated by addition of ice cold 50 mM Tris-HCl+BSA (1 mg/ml) (pH 7.4) followed by filtration under vacuum through Whatman GF/B glass fiber filters with 3 washes with cold Tris buffer. Bound radioactivity was determined by liquid scintillation spectrophotometry at 50% efficiency after extraction by shaking samples for 30-60 min with Budget-Solve scintillation fluid. Data are reported as the mean ±SEM of three experiments, each performed in triplicate. Ki values were calculated from displacement data using EBDA (Equilibrium Binding Data Analysis; BIOSOFT, Milltown, N.J.).

ICR mice [2] = test: Tetrad model: antinociception in the tail-flick procedure (TF); type: in vivo; details: Mus musculus, iv, 20 min; i.v., tail-flick 20 min after injection; read-out: T.F. ED50
From the text: as §1, §2, §3

human CB2 receptor = molecular target: T2, human CB2 receptor (Homo sapiens, UniProt P34972); test: CB2 receptor binding, [3H]CP55,940 displacement; details: CHO membranes, means ± SE, N = 3
T2 construct: expressed in transfected cells; host or cells: CHO
T2 sequence (P34972 whole entry): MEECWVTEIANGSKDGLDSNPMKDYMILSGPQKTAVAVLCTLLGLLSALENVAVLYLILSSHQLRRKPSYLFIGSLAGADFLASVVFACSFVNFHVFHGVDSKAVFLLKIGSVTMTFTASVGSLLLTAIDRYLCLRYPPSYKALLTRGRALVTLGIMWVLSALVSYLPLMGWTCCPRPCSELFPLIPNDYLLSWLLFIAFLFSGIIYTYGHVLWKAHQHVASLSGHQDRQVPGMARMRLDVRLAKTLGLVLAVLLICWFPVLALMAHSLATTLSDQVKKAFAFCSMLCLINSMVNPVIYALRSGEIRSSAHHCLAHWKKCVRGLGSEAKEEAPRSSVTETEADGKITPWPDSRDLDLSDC
Protocol: as §4, §5

ICR mice [3] = test: Tetrad model: relative immobility (RI), ring-immobility test; type: in vivo; details: Mus musculus, iv, 40 min; i.v., ring immobility 40 min after injection; read-out: R.I. ED50
From the text: as §1
Rectal temperature was measured 30 min after the i.v. injection. The change in rectal temperature (Δ° C.) following analog administration was calculated for each animal. Relative immobility (catalepsy) was measured 40 min after the i.v. injection by the ring-immobility test. Mice were placed on a ring 5.5 cm in diameter attached to a stand at a height of 16 cm. The amount of time the mice spent motionless on the ring during the 5-minute procedure was measured, with the criteria of immobility being defined as the absence of all voluntary movements, including whisker movement, but excluding respiration. The percent immobility was calculated as: % immobility=[time immobile (sec)]/[length of session (sec)]×100. Mice that fell from the ring or actively jumped were allowed five attempts. After the fifth escape these mice were removed from the ring and not included in the calculations. Data were collected from 6-12 mice for each condition tested.
as §3

[4] = tested on: retinal ganglionic cells (RGC); test: Rat NMDA model: retinal flat mounts, RGC count; type: in vivo; details: NMDA treatment only
Protocol: Rat NMDA Model. To mimic glaucomatous damage to the retina without a potentially confounding effect on IOP, retinal damage was induced by NMDA in a rat model. Following baseline measurements, e.g. IOP, ERG, slit lamp, fundus photography, heart rate and blood pressure, N-methyl D-aspartate (NMDA, 2 μl of 10 mM) was injected intravitreally to induce RGC damage. […] For positive identification, a hand scanner was used each time the rat was examined. This was necessary since the examiners will be masked as to treatment group. Treatment groups consisted of either NMDA only (control), O-1812 (0.1%) or O-2545 (0.1%), O-1812 (0.1%)+SR-141716 (2 mM), O-2545 (0.1%)+SR-141716 (2 mM), O-1812 (0.1%)+SR-144258 (2 mM) and O-2545 (0.1%)+SR-144258 (2 mM). All experiments were conducted in accordance with the policies of the Institutional Animal Care and Use Committee and the ARVO policy on use of animals in experiments. A minimum of two baseline ERG measurements was recorded 1 wk prior, 1 wk and 2 wk post injection. At the end of each experiment, rats were sacrificed and their eyes were preserved for histological assessment of effects on the retina and optic nerve.
Histology. For retinal flat mounts, retinas were dissected from formalin fixed whole eyes, mounted on superfrost glass slides, stained with hematoxylin and eosin and digitally photographed. For analysis, the retina was divided into four quadrants. A minimum of five 50 μm^2 sections per quadrant were used to count cell number. The cell sections were selected to be equidistant from the optic cup for all quadrants. For optic nerve experiments, the optic nerve was dissected at the margin of the optic disk and embedded in cryo media. Sections of 10 μm thickness were cut and mounted on superfrost glass slides and stained with hematoxylin and eosin. The slides were digitally photographed.

[5] = tested on: IOP in a rat glaucoma model; test: Combination therapy: IOP in a rat glaucoma model; type: in vivo, Sprague Dawley rats
From the text: (§6) Rat Glaucoma Model. Compared to acute studies, a chronic rat model of glaucoma was generated. The rats were made glaucomatous by ligating three vortex veins (Hosseini, A. et al. (2006) Chronic topical administration of WIN-55-212-2 maintinas a reduction in IOP in a rat glaucoma model without adverse effects. Exp. Eye Res. 82(5):753-9). More specifically, ocular hypertension was induced in Sprague-Dawley rats by ligating 3 of 4 episcleral veins of the right eye using 9.0 nylon sutures under anesthesia with 3 mg/Kg acepromazine and 20 mg/Kg ketamine. Within 6 wk, IOP increased by at least 5 mm Hg in the operated eye. This intervention produced at least a 30% increase in IOP in the operated eye and lasted for up to 60 weeks. During this time, a 30% loss of retinal function was documented by ERG. […] Thus, the model accurately mimics the progressive damage that occurs in patients with glaucoma.
(§7) Measurements of Intraocular Pressure. IOP elevation was measured under mild sedation using a calibrated Goldmann tonometer modified for rats. Three determinations were averaged for each eye. To account for diurnal variation, all IOP's were measured between 11 am and 1 pm during the daily trough period.
Combination Therapy. Since cannabinoids and timolol, which are both known to reduce IOP, have different mechanisms of action, there is potential for a synergistic effect. The combination of timolol and a synthetic cannabinoid (WIN55 212-2, O-1812, or O-2545) to reduce IOP in a chronic rat model of ocular hypertension was examined. Surgical ligation of three of the four episcleral veins in one eye of Sprague Dawley rats caused a long lasting (>44 week) increase in IOP. IOP was measured by Goldmann tonometry at baseline (−30), 0, 30, 60 and 120 min, as was heart rate and blood pressure. For combination therapy, after baseline IOP measurement, timolol 0.5% was applied topically followed 30 min later by WIN55 212-2 1.0%, O-1812 1.0%, or O-2545 1.0%. In another experiment, O-1812 1.0% and O-2545 1.0% were administered simultaneously. An analysis for ocular irritation was performed by slit lamp examination (SLE) at baseline and 150 min.

[6] = tested on: IOP in a rat glaucoma model; test: IOP after topical application in chronic rat glaucoma model; type: in vivo, Sprague-Dawley rats; details: 1.0% topical
From the text: as §6, §7
Therapeutic Regimen. For IOP Measurements (Topical application) Baseline IOP, heart rate, blood pressure and normal ocular anatomy were documented prior to drug administration. The drugs WIN 55-212-2 (0.1%, 1.0%), O-1812 (0.01%, 0.1%, 1.0%), O-2545 (0.1%, 1.0%) were all dissolved in Tocrisolve™ (vehicle). IOP, heart rate, and blood pressure were measured prior to and after 30, 60 and 120 min after topical administration. Contralateral eyes served as vehicle treated controls.

Structure (SMILES)	ED50 (ICR mice [1]) [mg/kg]	Ki (human CB1 receptor) [nM]	ED50 (ICR mice [2]) [mg/kg]	Ki (human CB2 receptor) [nM]	ED50 (ICR mice [3]) [mg/kg]	Reduction of RGC cell density [4] [%]	IOP at 120 min (% Baseline) ([5]; 0.5% topical alone, 120 min)	Time for which IOP was significantly decreased ([5]; timolol alone, prior experiments in this model) [min]	Time for which significant IOP reduction was maintained [6]	Effect on IOP at 30 min ([6]; 30 min)	IOP after 60 min (% of Baseline) ([6]; 60 min)
C[C@H](CO)NC(=O)CCC/C=C\C/C=C\C/C=C\C/C=C\C(C)(C)CCCCn1cccn1 [Compound O-2954]	0.14	127 ± 2.84	0.19	301 ± 35.6	0.57	–	–	–	–	–	–
C[C@H](CO)NC(=O)CCC/C=C\C/C=C\C/C=C\C/C=C\C(C)(C)CCCCn1cncn1 [Compound O-2955]	2.03	298 ± 33.9	1.94	215 ± 40.5	2.21	–	–	–	–	–	–
C[C@H](CO)NC(=O)CCC/C=C\C/C=C\C/C=C\C/C=C\C(C)(C)CCCCN1CCOCC1 [Compound O-4316]	0.11	3.88 ± 0.22	0.04	22.4 ± 0.43	0.03	–	–	–	–	–	–
C[C@H](CO)NC(=O)CCC/C=C\C/C=C\C/C=C\C/C=C\C(C)(C)CCCCn1ccnc1 [Compound O-4368]	0.68	90.5 ± 5	0.29	153 ± 5	0.25	–	–	–	–	–	–
C[C@H](CO)NC(=O)CCC/C=C\C/C=C\C/C=C\C/C=C\C(C)(C)CCCCN1CCCCC1 [Compound O-4386]	0.79	92.8 ± 2.2	0.55	226 ± 24	0.7	–	–	–	–	–	–
C[C@H](CO)NC(=O)CCC/C=C\C/C=C\C/C=C\C/C=C\C(C)(C)CCCCN1CCCC1 [Compound O-4388]	0.42	99.4 ± 5.9	0.38	404 ± 39	0.84	–	–	–	–	–	–
CN[C@H](CC(=O)O)C(=O)O [NMDA, N-methyl D-aspartate, reference compound]	–	–	–	–	–	49	–	–	–	–	–
CC(C)(C)NC[C@H](O)COc1nsnc1N1CCOCC1 [Timolol, timolol]	–	–	–	–	–	–	91.5 ± 10.2	30	–	–	–
Cc1c(C(=O)c2cccc3ccccc23)c2cccc3c2n1[C@@H](CN1CCOCC1)CO3 [WIN 55-212-3, reference compound]	–	–	–	–	–	–	–	–	up to 120 min	significantly lowered	86.5 ± 2.5 % of Baseline
